Data as given in patent publication US20140120232A1, “ACID TASTE/ACID SMELL-REDUCING AGENT” (T. HASEGAWA CO., LTD., priority 2011, published 2014).

Experiment: Sensory evaluation of Vermont drink containing the agent
Details: ten panels
Experimental: Water was added to a mixture of 10 g of apple-cider vinegar (acetic acid: 4.8%), 3 g of honey, 7 g of fructose-glucose liquid sugar mixed with sugar, 0.02 g of citric acid, 0.002 g of trisodium citrate, and 0.1 g of a Vermont flavor (manufactured by T. Hasegawa Co., Ltd.) to give a total amount of 100 mL. To the resulting mixture was added (Z,Z)-4,7-tridecadienal as the acid taste and/or acid smell-reducing agent of the present invention in concentrations shown in the following Table 1 to give Vermont drinks containing the agent.
Sensory evaluation of each drink was carried out by ten panels. […] The piercing aroma characteristic to aldehydes is a characteristic aroma common to every aldehyde and refers to an irritant off-smell giving an image of deteriorated oils and fats, soap, metals, Houttuynia cordata, etc. The judgment of smell was performed by comparing the effects at different concentrations of the acid taste and/or acid smell-reducing agent, and a concentration giving the highest acid taste/acid smell quality was selected. […]

## CCCCC/C=C\C/C=C\C=C\C=O [(E,Z,Z)-2,4,7-tridecatrienal]
0.005 ppt
  A: number of panels, acid taste/acid smell extreme and cause irritation: 10
  B: number of panels, acid taste/acid smell slightly strong and slightly cause irritation: 0
  C: number of panels, acid taste/acid smell slightly unpleasant: 0
  Flavor judgment: number of panels who judged acid taste/acid smell quality the highest: 0
  N: number of panels, irritation of acid reduced to give a mild acid taste: 0
  X: number of panels, acid taste reduced but piercing odor characteristic to aldehydes unpleasant: 0
0.02 ppt
  A: number of panels, acid taste/acid smell extreme and cause irritation: 8
  B: number of panels, acid taste/acid smell slightly strong and slightly cause irritation: 1
  C: number of panels, acid taste/acid smell slightly unpleasant: 1
  Flavor judgment: number of panels who judged acid taste/acid smell quality the highest: 0
  N: number of panels, irritation of acid reduced to give a mild acid taste: 0
  X: number of panels, acid taste reduced but piercing odor characteristic to aldehydes unpleasant: 0
0.1 ppt
  A: number of panels, acid taste/acid smell extreme and cause irritation: 7
  B: number of panels, acid taste/acid smell slightly strong and slightly cause irritation: 2
  C: number of panels, acid taste/acid smell slightly unpleasant: 1
  Flavor judgment: number of panels who judged acid taste/acid smell quality the highest: 0
  N: number of panels, irritation of acid reduced to give a mild acid taste: 0
  X: number of panels, acid taste reduced but piercing odor characteristic to aldehydes unpleasant: 0
0.2 ppt
  A: number of panels, acid taste/acid smell extreme and cause irritation: 4
  B: number of panels, acid taste/acid smell slightly strong and slightly cause irritation: 3
  C: number of panels, acid taste/acid smell slightly unpleasant: 3
  Flavor judgment: number of panels who judged acid taste/acid smell quality the highest: 0
  N: number of panels, irritation of acid reduced to give a mild acid taste: 0
  X: number of panels, acid taste reduced but piercing odor characteristic to aldehydes unpleasant: 0
0.5 ppt
  A: number of panels, acid taste/acid smell extreme and cause irritation: 0
  B: number of panels, acid taste/acid smell slightly strong and slightly cause irritation: 1
  C: number of panels, acid taste/acid smell slightly unpleasant: 3
  Flavor judgment: number of panels who judged acid taste/acid smell quality the highest: 1
  N: number of panels, irritation of acid reduced to give a mild acid taste: 6
  X: number of panels, acid taste reduced but piercing odor characteristic to aldehydes unpleasant: 0
1 ppb
  A: number of panels, acid taste/acid smell extreme and cause irritation: 0
  B: number of panels, acid taste/acid smell slightly strong and slightly cause irritation: 0
  C: number of panels, acid taste/acid smell slightly unpleasant: 3
  Flavor judgment: number of panels who judged acid taste/acid smell quality the highest: 0
  N: number of panels, irritation of acid reduced to give a mild acid taste: 3
  X: number of panels, acid taste reduced but piercing odor characteristic to aldehydes unpleasant: 4
1 ppt
  A: number of panels, acid taste/acid smell extreme and cause irritation: 0
  B: number of panels, acid taste/acid smell slightly strong and slightly cause irritation: 1
  C: number of panels, acid taste/acid smell slightly unpleasant: 2
  Flavor judgment: number of panels who judged acid taste/acid smell quality the highest: 3
  N: number of panels, irritation of acid reduced to give a mild acid taste: 7
  X: number of panels, acid taste reduced but piercing odor characteristic to aldehydes unpleasant: 0
5 ppt
  A: number of panels, acid taste/acid smell extreme and cause irritation: 0
  B: number of panels, acid taste/acid smell slightly strong and slightly cause irritation: 0
  C: number of panels, acid taste/acid smell slightly unpleasant: 3
  Flavor judgment: number of panels who judged acid taste/acid smell quality the highest: 3
  N: number of panels, irritation of acid reduced to give a mild acid taste: 7
  X: number of panels, acid taste reduced but piercing odor characteristic to aldehydes unpleasant: 0
10 ppb
  A: number of panels, acid taste/acid smell extreme and cause irritation: 0
  B: number of panels, acid taste/acid smell slightly strong and slightly cause irritation: 0
  C: number of panels, acid taste/acid smell slightly unpleasant: 2
  Flavor judgment: number of panels who judged acid taste/acid smell quality the highest: 0
  N: number of panels, irritation of acid reduced to give a mild acid taste: 3
  X: number of panels, acid taste reduced but piercing odor characteristic to aldehydes unpleasant: 5
20 ppt
  A: number of panels, acid taste/acid smell extreme and cause irritation: 0
  B: number of panels, acid taste/acid smell slightly strong and slightly cause irritation: 0
  C: number of panels, acid taste/acid smell slightly unpleasant: 4
  Flavor judgment: number of panels who judged acid taste/acid smell quality the highest: 3
  N: number of panels, irritation of acid reduced to give a mild acid taste: 6
  X: number of panels, acid taste reduced but piercing odor characteristic to aldehydes unpleasant: 0
50 ppb
  A: number of panels, acid taste/acid smell extreme and cause irritation: 0
  B: number of panels, acid taste/acid smell slightly strong and slightly cause irritation: 0
  C: number of panels, acid taste/acid smell slightly unpleasant: 1
  Flavor judgment: number of panels who judged acid taste/acid smell quality the highest: 0
  N: number of panels, irritation of acid reduced to give a mild acid taste: 2
  X: number of panels, acid taste reduced but piercing odor characteristic to aldehydes unpleasant: 7
100 ppt
  A: number of panels, acid taste/acid smell extreme and cause irritation: 0
  B: number of panels, acid taste/acid smell slightly strong and slightly cause irritation: 2
  C: number of panels, acid taste/acid smell slightly unpleasant: 3
  Flavor judgment: number of panels who judged acid taste/acid smell quality the highest: 0
  N: number of panels, irritation of acid reduced to give a mild acid taste: 4
  X: number of panels, acid taste reduced but piercing odor characteristic to aldehydes unpleasant: 1
500 ppt
  A: number of panels, acid taste/acid smell extreme and cause irritation: 0
  B: number of panels, acid taste/acid smell slightly strong and slightly cause irritation: 0
  C: number of panels, acid taste/acid smell slightly unpleasant: 3
  Flavor judgment: number of panels who judged acid taste/acid smell quality the highest: 0
  N: number of panels, irritation of acid reduced to give a mild acid taste: 4
  X: number of panels, acid taste reduced but piercing odor characteristic to aldehydes unpleasant: 3
